Measurements published in ChEMBL document CHEMBL2331198, “Identification of small-molecule inhibitors of the human S100B-p53 interaction and evaluation of their activity in human melanoma cells” (Bioorg Med Chem, 2013).
Calls of active or inactive are those of the source. No cut-off for these calls is given here.

Assays:
[1] = test system: WM-115; assay: Cytotoxicity against human WM115 cells assessed as growth inhibition measured after 72 hrs by crystal violet assay; assay type: functional, cell-based; settings: WM-115, 72 h
[2] = target: T1, Protein S100-B (Homo sapiens, UniProt P04271); assay: Inhibition of human S100B/human TAMRA-p53(367-388) interaction by fluorescence polarization assay
T1 sequence (P04271 whole entry): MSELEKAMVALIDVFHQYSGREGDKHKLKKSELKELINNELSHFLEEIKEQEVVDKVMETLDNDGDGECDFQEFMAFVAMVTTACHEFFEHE

[3] = target: T2, Protein S100-B (Homo sapiens) (UniProt P04271); assay: Inhibition of human S100B/humanTAMRA-p53(367-388) interaction by In situ proximity ligation assay
T2 sequence (whole entry): T1 sequence (P04271 whole entry)

[4] = target: T2, Protein S100-B (Homo sapiens); assay: Inhibition of human S100B/humanTAMRA-p53(367-388) interaction assessed as inhibition rate at 50 uM by fluorescence polarization assay
[5] = target: T2, Protein S100-B (Homo sapiens); assay: Inhibition of human S100B/humanTAMRA-p53(367-388) interaction assessed as inhibition rate at 93 uM by fluorescence polarization assay

SMILES | IC50 [1] | IC50 [2] | Ki [2] | inhibition [3] | inhibition [4] | inhibition [5]
Nc1cc(N2CCCCC2)ccc1N1CCCCC1 | 36.4 µM | 31.5 µM | 25.1 µM |  |  | 
Nc1ccc(N2CCCCC2)cc1N1CCCCC1 | 4.9 µM | 2 µM | < 1 µM | Active |  | 
CCN(CC)c1ccc(N)c(C)c1 | 8.5 µM | 8.4 µM | 5 µM |  |  | 
Nc1ccc(N2CCNCC2)cc1 |  |  |  |  | < 50% | 
COc1ccc(/C=N/c2ccc(O)cc2)cc1 |  | 36.3 µM |  |  |  | 
CN1CCN(c2ccc(N)c(N3CCN(C)CC3)c2)CC1 |  |  |  |  | < 50% | 
N=C(N)c1ccc(OCCCCCOc2ccc(C(=N)N)cc2)cc1 [PENTAMIDINE] | 4.8 µM | > 100 µM |  |  |  | 14.2%
